Laboratory results reported in PubChem BioAssay AID228 (DTP/NCI, 2004).
“And” between values parts separate entries of the source, which are not always exact repeats. Identical values can stand only once. Inconclusive results are not listed.

System: BDF1 mice, Friend leukemia sc, tumor weight T/C
Assay: NCI In Vivo Anticancer Drug Screen. Data for tumor model Friend Virus Leukemia (Solid) (subcutaneous) in B6D2F1 (BDF1) mice
Conditions: endpoint: mean tumor weight, higher = larger tumour
Description: The antitumor activity of compounds was measured in mice bearing transplantable tumors. Survival or tumor size were measured and the results are expressed as the measurement made in the treated group (T) divided by the measurement made in the vehicle treated control group (C). The tumor model used in this assay is Friend Virus Leukemia (Solid) (subcutaneous) in B6D2F1 (BDF1) mice

[1] = dose: 100.0 mg/kg/injection, schedule: Q01DX011 (ip), vehicle: carboxymethylcellulose (CMC)

With `O=C(Nc1ccc(C2=NCCN2)cc1)c1ccc(C(=O)Nc2ccc(C3=NCCN3)cc2)cc1` the T/C (dose: 31.25 mg/kg/injection, schedule: Q01DX011 (ip), vehicle: carboxymethylcellulose (CMC)) was 94 % of control, the T/C (dose: 62.5 mg/kg/injection, schedule: Q01DX011 (ip), vehicle: carboxymethylcellulose (CMC)) was 89 % of control and the T/C [1] was 99 % of control. For the same molecule, the T/C (dose: 125.0 mg/kg/injection, schedule: Q01DX011 (ip), vehicle: carboxymethylcellulose (CMC)) was 5 % of control and the T/C (dose: 187.0 mg/kg/injection, schedule: Q01DX011 (ip), vehicle: carboxymethylcellulose (CMC)) was 32 % of control.

`O=c1[nH]c(=O)n(C2CC(O)C(CO)O2)cc1F` (stereo unspecified) was tested, and the T/C (dose: 16.0 mg/kg/injection, schedule: Q01DX011 (ip), vehicle: saline) was 92 % of control, the T/C (dose: 25.0 mg/kg/injection, schedule: Q01DX011 (ip), vehicle: carboxymethylcellulose (CMC)) was 109 % of control and the T/C (dose: 32.0 mg/kg/injection, schedule: Q01DX011 (ip), vehicle: saline) was 97 % of control. The T/C (dose: 60.0 mg/kg/injection, schedule: Q01DX011 (ip), vehicle: carboxymethylcellulose (CMC)) was 72 % of control and 47 % of control, the T/C (dose: 84.0 mg/kg/injection, schedule: Q01DX011 (ip), vehicle: saline) was 119 % of control and the T/C [1] was 4 % of control and 16 % of control. For the same molecule, the T/C (dose: 120.0 mg/kg/injection, schedule: Q01DX011 (ip), vehicle: carboxymethylcellulose (CMC)) was 18 % of control and the T/C (dose: 126.0 mg/kg/injection, schedule: Q01DX011 (ip), vehicle: saline) was 16 % of control and 30 % of control.

`O=C1C=CC(=O)O1` (tested in a mixture with another compound) was tested, and the T/C (dose: 7.5 mg/kg/injection, schedule: Q#A X022 (ip), vehicle: carboxymethylcellulose (CMC)) was 58 % of control, the T/C (dose: 15.5 mg/kg/injection, schedule: Q#A X022 (ip), vehicle: carboxymethylcellulose (CMC)) was 84 % of control and the T/C (dose: 125.0 mg/kg/injection, schedule: Q#A X022 (ip), vehicle: carboxymethylcellulose (CMC)) was 96 % of control. For the same molecule, the T/C (dose: 250.0 mg/kg/injection, schedule: Q#A X022 (ip), vehicle: carboxymethylcellulose (CMC)) was 33 % of control.

In the case of `Nc1nc(SCc2ccccc2)c2[nH]cnc2n1`, the T/C (dose: 2.0 mg/kg/injection, schedule: Q01DX011 (ip), vehicle: carboxymethylcellulose (CMC)) is reported as 84 % of control, the T/C (dose: 3.12 mg/kg/injection, schedule: Q01DX011 (ip), vehicle: saline) is reported as 25 % of control and the T/C (dose: 4.0 mg/kg/injection, schedule: Q01DX011 (ip), vehicle: carboxymethylcellulose (CMC)) is reported as 79 % of control. For the same molecule, the T/C (dose: 6.25 mg/kg/injection, schedule: Q01DX011 (ip), vehicle: saline) was 43 % of control, the T/C (dose: 8.0 mg/kg/injection, schedule: Q01DX011 (ip), vehicle: carboxymethylcellulose (CMC)) was 99 % of control and the T/C (dose: 10.0 mg/kg/injection, schedule: Q01DX011 (ip), vehicle: carboxymethylcellulose (CMC)) was 46 % of control.

In the case of `CO[C@H]1[C@@H](O)C[C@H]2[C@@H]3CC=C4C[C@@H](O)CC[C@]4(C)[C@H]3CC[C@@]21C`, the T/C (dose: 10.0 mg/kg/injection, schedule: Q01DX011 (sc), vehicle: steriod suspending solution) is reported as 77 % of control, the T/C (dose: 20.0 mg/kg/injection, schedule: Q01DX011 (sc), vehicle: steriod suspending solution) is reported as 116 % of control and the T/C (dose: 40.0 mg/kg/injection, schedule: Q01DX011 (sc), vehicle: steriod suspending solution) is reported as 115 % of control.
